Here are results for six compounds from patent publication US12583853B2, “1H-pyrrolo[2,3-b]pyridine derivatives and related compounds as BCL-2 inhibitors for the treatment of neoplastic and autoimmune diseases” (Newave Pharmaceutical Inc., priority 2018, dated 2026).

One data set deals with Mcl-1 (Homo sapiens, UniProt Q07820). Conditions: cited from earlier work.
The test system of a further data set is RS4; 11 cells. As to conditions: cited from earlier work.
The subject of the next data set is CLL. Conditions: read-out: average EC50, apoptosis in CLL; cited from earlier work.
In the next data set the test system is RS4; 11 xenografts. As to conditions: single dose of 100 mg/kg; cited from earlier work.
Data set [1] relates to xenograft (DoHH2, Granta-519). As to conditions: single agent or in combination with Bendamustine and other agents; cited from earlier work.
A further data set deals with T1, Bcl-w (Homo sapiens, UniProt Q92843).
T1 sequence (Q92843 1-193): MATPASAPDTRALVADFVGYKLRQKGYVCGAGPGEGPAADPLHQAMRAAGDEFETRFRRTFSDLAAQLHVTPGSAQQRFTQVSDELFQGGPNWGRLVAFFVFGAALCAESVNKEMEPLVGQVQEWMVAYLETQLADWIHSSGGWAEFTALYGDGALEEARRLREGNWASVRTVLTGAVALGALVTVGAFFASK
As to conditions: cited from earlier work.

The test system of the next data set is SCLC H146 cell line. Conditions: read-out: IC50 against SCLC H146 cell line; cited from earlier work.
A further data set concerns H345 xenograft. Conditions: 100 mg/kg/day, H345 xenograft model; cited from earlier work.
Data set [2] concerns xenograft models of small-cell lung cancer and acute lymphoblastic leukemia. As to conditions: oral administration, alone; cited from earlier work.
Another data set deals with circulating platelets. As to conditions: clinical trial, patients; cited from earlier work.
For data set [3] the following is noted: in vivo; cited from earlier work.
For data set [4] the following is noted: cited from earlier work.
The target in a further data set is T2, Bcl-2 (Homo sapiens, UniProt P10415).
T2 construct: purchased R&D Systems, Inc
Nature of the data set: Bcl-2 competition binding (fluorescence polarization) assay. As to conditions: for pIC50: fluorescence polarization, 3 hours incubation at room temperature, read-out: BCL2 IC50; for BCL2 inhibitor potency in words: statement on the BCL2 IC50 table. As to the method:
Biological Example 1: Bcl-2 Competition Binding (Fluorescence Polarization) Assay
This binding assay was performed in 96-well plate and with each assay contained 15 and 30 nM of labeled peptide and purified Bcl-2 protein (purchased from R&D Systems, Inc). The assay buffer contained 20 mM Hepes (pH 7.0), 50 mM KCl, 5 mM MgCl2, 20 mM Na2MoO4, 0.1 mg/ml Bovine Gamma Globulin and 0.01% NP40. Compounds were diluted in DMSO and added to the final assay with concentration range from 20 μM to 2 nM. The polarization degree (mP) value was determined by BioTek Synergy II with background subtraction after 3 hours of incubation at room temperature. IC50 was calculated using Prism software with sigmoidal dose-response curve fitting. ABT-737 was used as reference compound. Such assays, carried out with a range of doses of test compounds, allowed the determination of an approximate IC50 value.
(In general: Polarisation of emitted light reports the rotation of a fluorescent probe.)

pEC50, pIC50, pKi: −log10 of the molar value.

T2 sequence (P10415 whole entry): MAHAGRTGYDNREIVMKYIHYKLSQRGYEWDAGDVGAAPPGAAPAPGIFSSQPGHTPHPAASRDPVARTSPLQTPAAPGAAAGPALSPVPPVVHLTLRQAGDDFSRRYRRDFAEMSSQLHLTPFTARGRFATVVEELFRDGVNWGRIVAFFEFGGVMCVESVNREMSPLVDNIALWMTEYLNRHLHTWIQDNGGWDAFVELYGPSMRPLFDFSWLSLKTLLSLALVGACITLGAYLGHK
Sequence of Mcl-1 (Q07820 whole entry, species assumed): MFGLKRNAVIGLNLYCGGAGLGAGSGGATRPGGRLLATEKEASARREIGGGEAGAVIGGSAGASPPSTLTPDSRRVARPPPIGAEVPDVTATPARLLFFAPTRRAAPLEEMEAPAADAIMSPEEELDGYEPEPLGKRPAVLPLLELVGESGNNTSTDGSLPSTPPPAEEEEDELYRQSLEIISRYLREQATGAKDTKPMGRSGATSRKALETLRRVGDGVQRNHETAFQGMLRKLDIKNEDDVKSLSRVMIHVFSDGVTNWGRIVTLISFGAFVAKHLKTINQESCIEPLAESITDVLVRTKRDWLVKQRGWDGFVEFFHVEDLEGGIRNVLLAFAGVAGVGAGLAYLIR

For the compound `CC1(C)CCC(CN2CCN(c3ccc(C(=O)NS(=O)(=O)c4ccc(NCC5CCOCC5)c([N+](=O)[O-])c4)c(Oc4cnc5[nH]ccc5c4)c3)CC2)=C(c2ccc(Cl)cc2)C1` [ABT-199], the “activity to Mcl-1” value on Mcl-1 is listed as “no activity”. The pEC50 in the data set with RS4; 11 cells is 8.10; with CLL, 8.52. Moreover, the “maximal tumor growth inhibition” value with RS4; 11 xenografts is recorded as 95%. In addition, the tumor growth delay with RS4; 11 xenografts is listed as 152%. Besides, the xenograft growth entry in data set [1] is recorded as “inhibits xenograft growth”.

Turning to `CC1(C)CCC(c2ccc(Cl)cc2)=C(CN2CCN(c3ccc(C(=O)NS(=O)(=O)c4ccc(N[C@H](CCN5CCOCC5)CSc5ccccc5)c(S(=O)(=O)C(F)(F)F)c4)cc3)CC2)C1` [ABT-263], the pKi at Bcl-w is ≥ 9.00. The pIC50 in the data set with SCLC H146 cell line was 6.96. For the same compound, in the data set on H345 xenograft, the TGI was 80% and the “treated tumors indicating at least a 50% reduction in tumor volume” value was 20%. Further, in data set [2], the tumor response entry is “complete tumor regressions”. For the same compound, the “effect on circulating platelets” value with circulating platelets is “rapid, concentration-dependent decrease in the number of circulating platelets”. Further, the oral bioavailability result in [3] is “orally bioavailable”.

`CN(C)CC[C@H](CSc1ccccc1)Nc1ccc(S(=O)(=O)NC(=O)c2ccc(N3CCN(Cc4ccccc4-c4ccc(Cl)cc4)CC3)cc2)cc1[N+](=O)[O-]` [ABT-737]: the oral bioavailability result in [3] is “not orally bioavailable”. Also, the aqueous solubility result in data set [4] is given as “low aqueous solubility”.

Turning to `CC1(C)CCC(CN2CCN(c3ccc(C(=O)NS(=O)(=O)c4ccc(NCC5CCOCC5)c([N+](=O)[O-])c4)c(P(C)(=O)c4cnc5[nH]ccc5c4)c3)CC2)=C(c2ccc(Cl)cc2)C1` (centres unmarked) [Example 1, 4-(4-[[2-(4-chlorophenyl)-4,4-dimethylcyclohex-1-en-1-yl]methyl]piperazin-1-yl)-2-[methyl(1H-pyrrolo[2,3-b]pyridin-5-yl)phosphoroso]-N-[3-nitro-4-[(oxan-4-ylmethyl)amino]benzenesulfonyl]benzamide], at Bcl-2, the pIC50 was 9.35 and the “BCL2 inhibitor potency in words” value was “highly potent BCL2 inhibitor”.

Turning to `CC1(C)CCC(CN2CCN(c3ccc4c(c3)C(c3cnc5[nH]ccc5c3)CN(S(=O)(=O)c3ccc(NC[C@H]5COCCO5)c([N+](=O)[O-])c3)C4=O)CC2)=C(c2ccc(Cl)cc2)C1` (stereo partly drawn) [Example 2, 6-(4-[[2-(4-chlorophenyl)-4,4-dimethylcyclohex-1-en-1-yl]methyl]piperazin-1-yl)-2-(4-[[(2S)-1,4-dioxan-2-ylmethyl]amino]-3-nitrobenzenesulfonyl)-4-[1H-pyrrolo[2,3-b]pyridin-5-yl]-3,4-dihydroisoquinolin-1-one], on Bcl-2, the negative-log IC50 (pIC50) is 9.10.

For the compound `C=C(c1cnc2[nH]ccc2c1)c1cc(N2CCN(CC3=C(c4ccc(Cl)cc4)CC(C)(C)CC3)CC2)ccc1C(=O)NS(=O)(=O)c1ccc(NC[C@H]2COCCO2)c([N+](=O)[O-])c1` [Example 3, (S)—N-((4-(((1,4-dioxan-2-yl)methyl)amino)-3-nitrophenyl)sulfonyl)-2-(1-(1H-pyrrolo[2,3-b]pyridin-5-yl)vinyl)-4-(4-((4′-chloro-5,5-dimethyl-3,4,5,6-tetrahydro-[1,1′-biphenyl]-2-yl)methyl)piperazin-1-yl)benzamide], on Bcl-2, the pIC50 was 8.89 and the “BCL2 inhibitor potency in words” value is “highly potent BCL2 inhibitor”.

The pEC50 is the EC50 on a negative log10 scale, so that one unit is a factor of ten. As a reminder, the pKi is the Ki on a negative log10 scale, so that one unit is a factor of ten. As usually defined, the pIC50 is the IC50 on a negative log10 scale, so that one unit is a factor of ten. For orientation: TGI means the reduction of tumour growth relative to the control group.
